Literature values as cited in paper PMC7884382, “A Phase 1 study of RO6870810, a novel bromodomain and extra-terminal protein inhibitor, in patients with NUT carcinoma, other solid tumours, or diffuse large B-cell lymphoma” (British Journal of Cancer, 2020).

System: BET family bromodomains (BRD4, BRD3, BRD2 and BRDT)
Design: method as in data on file
Conditions: ref data on file; cited from earlier work

Cc1sc2c(c1C)C(c1ccc(Cl)cc1)=N[C@@H](CC(=O)NCCCN1CCN(C)CC1)c1nnc(C)n1-2 [RO6870810]
Affinity for the acetyl-lysine recognition pocket of BET family bromodomains: high affinity
